Patent publication US8933105B2, “Pyrrole compounds” (Takeda Pharmaceutical Company Limited, priority 2007, dated 2015)

What was measured:
HepG2 = test: ATP content test (intracellular ATP content, ATPLite); assay type: cell-based, Human; details: HepG2, 30 μM, culture for one day, relative value to control (without addition of drug)
Protocol: (§1) Human liver cancer-derived cell line HepG2 (ATCC No. HB-8065) was passaged using Dulbecco's Modified Eagle medium (DMEM; Invitrogen) containing 10% fetal bovine serum (FBS; TRACE SCIENTIFIC LTD.), 1 mmol/L sodium pyruvate (Invitrogen), 2 mmol/L L-glutamine (Invitrogen), 50 IU/mL penicillin (Invitrogen) and 50 μg/mL streptomycin (Invitrogen) at 5% CO2, 37° C. The test reagent was prepared with DMSO to 10 mM, and further diluted with DMEM medium containing 0.5% FBS, 1 mmol/L sodium pyruvate, 2 mmol/L L-glutamine, 50 IU/mL penicillin and 50 μg/mL streptomycin to a final concentration of DMSO of 0.1%. HepG2 (2×10^4 cells/well) was cultured on a 96 well white plate (Costar) with the test reagent at 5% CO2, 37° C. After culture for one day, the intracellular ATP content was measured using ATPLite™ (PerkinElmer Life Sciences). The results are shown in Table 26 (n≧3, average value±SD) as a relative value (%) to control (without addition of drug) at 30 μM.

Caspase-3/7 = Caspase-3/7 activity test (Caspase-Glo 3/7 Assay); assay type: cell-based, Human; details: HepG2, 30 μM, culture for one day, relative to maximum with Staurosporine (100%) and no test reagent (0%)
Protocol: as §1
Caspase-3/7 Activity Test
The Caspase-3/7 activity in the cells cultured for one day by a method similar to that in Experimental Example 2 was measured using Caspase-Glo 3/7 Assay (Promega). The results are shown in Table 26 (n≧3, average value±SD) as relative activity (%) of each reagent based on the maximum value of Caspase-3/7 activity when exposed to Staurosporine (100%), and the activity without addition of a test reagent (0%).

[1] = biological target: T1, proton, potassium-adenosine triphosphatase (H+,K+-ATPase) (Sus scrofa, UniProt P19156); test: Proton potassium-adenosine triphosphatase (H+,K+-ATPase) inhibitory activity test; assay type: biochemical; details: swine gastric microsomal fraction, pH 6.5, 37° C.
T1 construct: a gastric mucous membrane microsomal fraction was prepared from the stomach of swine; from tissue; host or cells: swine stomach, gastric mucous membrane microsomal fraction
T1 sequence (P19156 2-1034 limits assumed): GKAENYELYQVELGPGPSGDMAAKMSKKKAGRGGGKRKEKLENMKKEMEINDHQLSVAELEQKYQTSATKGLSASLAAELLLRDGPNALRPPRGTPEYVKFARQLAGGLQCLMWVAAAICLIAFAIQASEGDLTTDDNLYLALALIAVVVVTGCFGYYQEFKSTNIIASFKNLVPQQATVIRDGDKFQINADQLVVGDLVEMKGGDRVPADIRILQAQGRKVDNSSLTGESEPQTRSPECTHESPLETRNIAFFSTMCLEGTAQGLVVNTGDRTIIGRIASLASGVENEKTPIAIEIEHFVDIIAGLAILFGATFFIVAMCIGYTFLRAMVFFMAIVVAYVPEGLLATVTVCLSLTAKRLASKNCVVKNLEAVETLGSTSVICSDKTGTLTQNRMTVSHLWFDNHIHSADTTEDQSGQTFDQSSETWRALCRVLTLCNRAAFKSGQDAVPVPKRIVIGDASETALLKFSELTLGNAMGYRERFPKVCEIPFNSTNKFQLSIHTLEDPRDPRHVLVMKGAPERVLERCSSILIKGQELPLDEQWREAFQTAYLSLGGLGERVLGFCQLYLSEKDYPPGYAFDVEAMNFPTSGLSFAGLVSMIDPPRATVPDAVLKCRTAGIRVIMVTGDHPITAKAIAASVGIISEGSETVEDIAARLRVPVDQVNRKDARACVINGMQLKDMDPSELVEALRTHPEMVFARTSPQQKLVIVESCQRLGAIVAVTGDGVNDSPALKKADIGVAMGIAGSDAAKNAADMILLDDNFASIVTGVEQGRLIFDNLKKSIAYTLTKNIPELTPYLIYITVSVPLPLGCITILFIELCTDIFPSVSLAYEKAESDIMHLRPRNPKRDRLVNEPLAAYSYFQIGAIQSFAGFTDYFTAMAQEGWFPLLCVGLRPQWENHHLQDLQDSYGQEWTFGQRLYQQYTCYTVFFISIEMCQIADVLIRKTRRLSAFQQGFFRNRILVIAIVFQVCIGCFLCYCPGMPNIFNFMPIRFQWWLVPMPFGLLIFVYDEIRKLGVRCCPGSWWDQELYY
T1 sequence (P18434 whole entry partner): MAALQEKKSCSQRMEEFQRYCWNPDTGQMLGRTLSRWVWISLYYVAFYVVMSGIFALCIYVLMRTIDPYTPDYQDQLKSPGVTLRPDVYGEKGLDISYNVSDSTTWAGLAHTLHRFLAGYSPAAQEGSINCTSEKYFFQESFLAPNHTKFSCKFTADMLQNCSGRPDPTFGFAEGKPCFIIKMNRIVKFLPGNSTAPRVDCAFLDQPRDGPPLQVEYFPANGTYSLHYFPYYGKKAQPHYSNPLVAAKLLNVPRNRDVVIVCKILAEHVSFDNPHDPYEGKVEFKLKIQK
Protocol: Proton Potassium-Adenosine Triphosphatase (H^+,K^+-ATPase) Inhibitory Activity Test
According to the method [Biochim. Biophys. Acta, 728, 31 (1983)] of Wallmark et al., a gastric mucous membrane microsomal fraction was prepared from the stomach of swine. First, the stomach was removed, washed with tap water, immersed in 3 mol/L brine, and the surface of the mucous membrane was wiped with a paper towel. The gastric mucous membrane was detached, chopped, and homogenized in a 0.25 mol/L saccharose solution (pH 6.8) containing 1 mmol/L EDTA and 10 mmol/L tris-hydrochloric acid using polytron (Kinematica). The obtained homogenate was centrifuged at 20,000×g for 30 min and the supernatant was centrifuged at 100,000×g for 90 min. The precipitate was suspended in 0.25 mol/L saccharose solution, superimposed on a 0.25 mol/L saccharose solution containing 7.5% Ficoll, and centrifuged at 100,000×g for 5 hr. The fraction containing the interface between the both layers was recovered, and centrifugally washed with 0.25 mol/L saccharose solution.
The obtained microsomal fraction was used as a proton, potassium-adenosine triphosphatase standard product.
To 40 μL of a 50 mmol/L HEPES-tris buffer (5 mmol/L magnesium chloride, 10 mmol/L potassium chloride, 10 μmol/L valinomycin, pH=6.5) containing 2.5 μg/mL (based on the protein concentration) of the enzyme standard product was added a test compound (5 μL) dissolved in a 10% aqueous dimethyl sulfoxide solution, and the mixture was incubated at 37° C. for 30 min. The enzyme reaction was started by adding 5 μL of a 2 mmol/L adenosine triphosphate tris salt solution (50 mmol/L HEPES-tris buffer (5 mmol/L magnesium chloride, pH 6.5)). The enzyme reaction was carried out at 37° C. for 20 min, and 15 μL of a malachite green solution (0.12% malachite green solution in sulfuric acid (2.5 mol/L), 7.5% ammonium molybdate and 11% Tween 20 were mixed at a ratio of 100:25:2) was added to quench the reaction. After allowing to stand at room temperature for 15 min, the resulting reaction product of inorganic phosphorus with malachite green was calorimetrically determined at a wavelength of 610 nm. In addition, the amount of the inorganic phosphoric acid in the reaction solution free of potassium chloride was measured in the same manner, which was subtracted from the inorganic phosphoric acid amount in the presence of potassium chloride to determine the proton, potassium-adenosine triphosphatase activity. The inhibitory rate (%) was determined from the activity value of the control and the activity values of various concentrations of the test compound, and the 50% inhibitory concentration (IC50) of the proton, potassium-adenosine triphosphatase was determined.

Q: Which “ATP content (%, 30 μM)” value (HepG2) does the source give for `CNCc1cn(S(=O)(=O)c2cnn(C(F)F)c2)c(-c2cccnc2F)c1F.Cl` [Example 81, 1-[1-{[1-(difluoromethyl)-1H-pyrazol-4-yl]sulfonyl}-4-fluoro-5-(2-fluoropyridin-3-yl)-1H-pyrrol-3-yl]-N-methylmethanamine hydrochloride] here?
A: 101.7%

Q: What about the “Caspase-3/7 activity (%, 30 μM)” value (Caspase-3/7) of the same molecule?
A: −0.2%

Q: What about the IC50 [1] of the same molecule?
A: 300 nM

Q: How did the “ATP content (%, 30 μM)” value (HepG2) turn out when `CNCc1cn(S(=O)(=O)c2nccs2)c(-c2cccnc2F)c1F.Cl` [Example 83, 1-[4-fluoro-5-(2-fluoropyridin-3-yl)-1-(1,3-thiazol-2-ylsulfonyl)-1H-pyrrol-3-yl]-N-methylmethanamine hydrochloride] was run?
A: 96.6%

Q: What about the “Caspase-3/7 activity (%, 30 μM)” value (Caspase-3/7) of the same molecule?
A: 0.3%

Q: What about the IC50 [1] of the same molecule?
A: 180 nM

Q: Which “ATP content (%, 30 μM)” value (HepG2) does the source give for `CNCc1cn(S(=O)(=O)c2ccccn2)c(-c2cccnc2F)c1F.Cl` [Example 85, 1-[4-fluoro-5-(2-fluoropyridin-3-yl)-1-(pyridin-2-ylsulfonyl)-1H-pyrrol-3-yl]-N-methylmethanamine hydrochloride] here?
A: 102.0%

Q: What about the “Caspase-3/7 activity (%, 30 μM)” value (Caspase-3/7) of the same molecule?
A: −0.6%

Q: And the IC50 [1]?
A: 98 nM

Q: Which “ATP content (%, 30 μM)” value (HepG2) does the source give for `CNCc1cc(-c2cccnc2C#N)n(S(=O)(=O)c2ccccc2Cl)c1.Cl` [Example 99, 3-{1-[(2-chlorophenyl)sulfonyl]-4-[(methylamino)methyl]-1H-pyrrol-2-yl}pyridine-2-carbonitrile hydrochloride] here?
A: 82.7%

Q: What about the “Caspase-3/7 activity (%, 30 μM)” value (Caspase-3/7) of the same molecule?
A: 0.0%

Q: What about the IC50 [1] of the same molecule?
A: 270 nM

Q: Which results are given for `CNCc1cc(-c2cccnc2C#N)n(S(=O)(=O)c2ccccc2C#N)c1.Cl` [Example 101, 3-{1-[(2-cyanophenyl)sulfonyl]-4-[(methylamino)methyl]-1H-pyrrol-2-yl}pyridine-2-carbonitrile hydrochloride]?
A: ATP content (%, 30 μM) (HepG2): 97.3%; Caspase-3/7 activity (%, 30 μM) (Caspase-3/7): −0.5%; IC50 [1]: 230 nM
